# According to ChEMBL document CHEMBL1137895, “Synthesis and activity of 2-[4-(4-[3H]-2-cyanophenyl)piperazinyl]-N-(2,4,6-[3H]3-3-methylphenyl)acetamide: a selective dopamine D4 receptor agonist and radioligand” (Bioorg Med Chem Lett, 2004):
# Experiments:
# D(4) dopamine receptor [1] = target: T1, D(4) dopamine receptor (Homo sapiens, UniProt P21917); assay: In vitro ability to inhibit [3H]6b binding to human Dopamine receptor D4.4
# T1 sequence (P21917 whole entry): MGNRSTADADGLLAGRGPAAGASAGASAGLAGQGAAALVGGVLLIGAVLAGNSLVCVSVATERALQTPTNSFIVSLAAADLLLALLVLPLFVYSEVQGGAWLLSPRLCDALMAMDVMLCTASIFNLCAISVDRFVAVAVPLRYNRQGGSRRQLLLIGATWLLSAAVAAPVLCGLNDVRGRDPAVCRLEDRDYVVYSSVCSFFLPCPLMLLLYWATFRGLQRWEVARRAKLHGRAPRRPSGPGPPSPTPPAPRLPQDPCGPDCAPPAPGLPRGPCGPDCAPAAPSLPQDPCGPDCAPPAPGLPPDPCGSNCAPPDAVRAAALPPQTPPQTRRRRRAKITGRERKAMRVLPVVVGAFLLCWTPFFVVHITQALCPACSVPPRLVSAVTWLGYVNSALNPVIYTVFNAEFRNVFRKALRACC
# D(4) dopamine receptor [2] = target: T1, D(4) dopamine receptor; assay: In vitro ability to inhibit [3H]spiperone binding to human Dopamine receptor D4.4
# D(4) dopamine receptor [3] = target: T1, D(4) dopamine receptor; assay: Agonist activity was calculated in calcium flux assay using HEK293 cells co-transfected with human Dopamine receptor D4.4 and Galphaqo5; type: functional, cell-based
# D(4) dopamine receptor [4] = target: T1, D(4) dopamine receptor; assay: In vitro ability to inhibit [3H]spiperone binding to human Dopamine receptor D4.4 allele
# [5] = target: T2, D(4) dopamine receptor (Homo sapiens) (UniProt P21917); assay: Efficacy in calcium flux assay using HEK293 cells co-transfected with human Dopamine receptor D4.4 and G-alpha-qo5 relative to 10 uM dopamine; type: functional, cell-based
# T2 sequence (whole entry): T1 sequence (P21917 whole entry)
Compound,Ki (D(4) dopamine receptor [1]),Ki (D(4) dopamine receptor [2]),EC50 (D(4) dopamine receptor [3]),Ki (D(4) dopamine receptor [4]),E [5]
COc1cccc(N2CCN(CC(=O)Nc3cccc(C)c3)CC2)c1,39.1 nM,46 nM,> 10000 nM,–,–
Cc1cc(NC(=O)CN2CCN(c3ccc(Br)cc3C#N)CC2)ccc1Br,14 nM,54.2 nM,> 10000 nM,–,–

# Continued by falling Ki (D(4) dopamine receptor [1]), values first:
Ki (D(4) dopamine receptor [1]),Ki (D(4) dopamine receptor [2]),EC50 (D(4) dopamine receptor [3]),Ki (D(4) dopamine receptor [4]),E [5],Compound
90.7 nM,61.9 nM,> 10000 nM,–,–,Cc1cccc(NC(=O)CN2CCN(c3ccc(F)cc3)CC2)c1
88.9 nM,101 nM,> 10000 nM,–,–,COc1ccc(N2CCN(CC(=O)Nc3cccc(C)c3)CC2)cc1
1.8 nM,–,26.8 nM,0.7 nM,60%,COc1ccccc1N1CCN(CC(=O)Nc2cccc(C)c2)CC1
